Results as given in ChEMBL document CHEMBL3098003, “Structure-based design of 2-aminopyridine oxazolidinones as potent and selective tankyrase inhibitors” (ACS Med Chem Lett, 2013).
Blank lines part the entries; values can stand above or below the compound they belong to. The source made the active and inactive calls. The rule behind the calls is not given here.

What was measured:
[1] = Terminal plasma concentration in athymic nude mouse xenografted with human DLD1 cells at 50 mg/kg, po bid for 3 days; assay type: ADME, organism-based, DLD-1; set-up: dose 50 mg/kg, route oral; settings: read-out: Cp(T)
Histamine H1 receptor = Histamine H1 receptor (Homo sapiens, UniProt P35367); assay: Binding affinity to histamine H1 receptor (unknown origin)
Mu-type opioid receptor = Mu-type opioid receptor (Homo sapiens, UniProt P35372); assay: Binding affinity to mu opioid receptor (unknown origin)
Cannabinoid receptor 1 = Cannabinoid receptor 1 (Homo sapiens, UniProt P21554); assay: Binding affinity to CB1 receptor (unknown origin)
[2] = biological target: MAP kinase-interacting serine/threonine-protein kinase 1 (Homo sapiens) (UniProt Q9BUB5); assay: Inhibition of MKNK1 (unknown origin) at 1 uM after 1 hr
[3] = biological target: Voltage-gated inwardly rectifying potassium channel KCNH2 (Homo sapiens, UniProt Q12809); assay: Inhibition of human ERG
[4] = Cytotoxicity against human DLD1 cells; assay type: functional, cell-based; settings: DLD-1
[5] = Toxicity in po dosed athymic nude mouse administered bid for 8 days; assay type: organism-based; settings: in vivo
Mus musculus [6] = assay: In vivo inhibition of tankyrase in tumor of athymic nude mouse xenografted with human DLD1 cells assessed as axin accumulation at 50 mg/kg, po bid for 3 days; assay type: functional, organism-based; set-up: dose 50 mg/kg; settings: DLD-1
Mus musculus [7] = assay: Toxicity in athymic nude mouse assessed as lethargy at 100 mg/kg, po bid for 8 days; assay type: organism-based; set-up: dose 100 mg/kg, route oral; settings: in vivo, 192 h
[8] = biological target: Beta-1 adrenergic receptor (Homo sapiens, UniProt P08588); assay: Binding affinity to adrenergic beta1 receptor (unknown origin)
[9] = biological target: C-C chemokine receptor type 2 (Homo sapiens, UniProt P41597); assay: Binding affinity to CCR2 (unknown origin)
Substance-P receptor = Substance-P receptor (Homo sapiens, UniProt P25103); assay: Binding affinity to NK1 receptor (unknown origin)
Mus musculus [10] = assay: In vivo inhibition of tankyrase in tumor of athymic nude mouse xenografted with human DLD1 cells assessed as axin accumulation at 200 mg/kg, po bid for 3 days; assay type: functional, organism-based; set-up: dose 200 mg/kg; settings: DLD-1
Mus musculus [11] = assay: In vivo inhibition of tankyrase-mediated TCF7 gene expression in tumor of athymic nude mouse xenografted with human DLD1 cells at 200 mg/kg, po bid for 3 days by STF assay; assay type: functional, organism-based; set-up: dose 200 mg/kg; settings: DLD-1

Chain of MAP kinase-interacting serine/threonine-protein kinase 1 (Homo sapiens) (Q9BUB5 whole entry, looked up): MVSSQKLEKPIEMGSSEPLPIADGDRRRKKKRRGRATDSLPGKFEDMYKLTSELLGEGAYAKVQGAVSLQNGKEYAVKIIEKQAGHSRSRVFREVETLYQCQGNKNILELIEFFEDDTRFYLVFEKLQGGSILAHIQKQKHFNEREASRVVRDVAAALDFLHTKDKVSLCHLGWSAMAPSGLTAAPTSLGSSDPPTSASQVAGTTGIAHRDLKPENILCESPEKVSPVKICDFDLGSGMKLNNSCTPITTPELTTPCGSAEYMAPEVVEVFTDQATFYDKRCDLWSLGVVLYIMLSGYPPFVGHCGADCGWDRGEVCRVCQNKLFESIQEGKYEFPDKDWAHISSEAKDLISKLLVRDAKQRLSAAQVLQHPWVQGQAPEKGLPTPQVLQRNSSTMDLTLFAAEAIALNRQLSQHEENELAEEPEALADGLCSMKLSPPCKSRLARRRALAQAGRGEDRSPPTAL
Chain of Mu-type opioid receptor (P35372 whole entry): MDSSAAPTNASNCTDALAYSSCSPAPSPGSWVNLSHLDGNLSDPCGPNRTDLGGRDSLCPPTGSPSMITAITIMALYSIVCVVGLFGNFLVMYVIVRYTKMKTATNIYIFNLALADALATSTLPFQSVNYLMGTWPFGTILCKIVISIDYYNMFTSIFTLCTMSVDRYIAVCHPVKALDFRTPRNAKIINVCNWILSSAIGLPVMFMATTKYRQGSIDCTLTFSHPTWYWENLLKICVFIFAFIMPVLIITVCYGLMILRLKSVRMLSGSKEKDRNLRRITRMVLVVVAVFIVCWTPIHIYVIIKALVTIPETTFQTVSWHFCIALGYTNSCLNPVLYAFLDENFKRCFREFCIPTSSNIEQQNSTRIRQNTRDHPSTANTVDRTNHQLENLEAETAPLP
Chain of Voltage-gated inwardly rectifying potassium channel KCNH2 (Q12809 whole entry): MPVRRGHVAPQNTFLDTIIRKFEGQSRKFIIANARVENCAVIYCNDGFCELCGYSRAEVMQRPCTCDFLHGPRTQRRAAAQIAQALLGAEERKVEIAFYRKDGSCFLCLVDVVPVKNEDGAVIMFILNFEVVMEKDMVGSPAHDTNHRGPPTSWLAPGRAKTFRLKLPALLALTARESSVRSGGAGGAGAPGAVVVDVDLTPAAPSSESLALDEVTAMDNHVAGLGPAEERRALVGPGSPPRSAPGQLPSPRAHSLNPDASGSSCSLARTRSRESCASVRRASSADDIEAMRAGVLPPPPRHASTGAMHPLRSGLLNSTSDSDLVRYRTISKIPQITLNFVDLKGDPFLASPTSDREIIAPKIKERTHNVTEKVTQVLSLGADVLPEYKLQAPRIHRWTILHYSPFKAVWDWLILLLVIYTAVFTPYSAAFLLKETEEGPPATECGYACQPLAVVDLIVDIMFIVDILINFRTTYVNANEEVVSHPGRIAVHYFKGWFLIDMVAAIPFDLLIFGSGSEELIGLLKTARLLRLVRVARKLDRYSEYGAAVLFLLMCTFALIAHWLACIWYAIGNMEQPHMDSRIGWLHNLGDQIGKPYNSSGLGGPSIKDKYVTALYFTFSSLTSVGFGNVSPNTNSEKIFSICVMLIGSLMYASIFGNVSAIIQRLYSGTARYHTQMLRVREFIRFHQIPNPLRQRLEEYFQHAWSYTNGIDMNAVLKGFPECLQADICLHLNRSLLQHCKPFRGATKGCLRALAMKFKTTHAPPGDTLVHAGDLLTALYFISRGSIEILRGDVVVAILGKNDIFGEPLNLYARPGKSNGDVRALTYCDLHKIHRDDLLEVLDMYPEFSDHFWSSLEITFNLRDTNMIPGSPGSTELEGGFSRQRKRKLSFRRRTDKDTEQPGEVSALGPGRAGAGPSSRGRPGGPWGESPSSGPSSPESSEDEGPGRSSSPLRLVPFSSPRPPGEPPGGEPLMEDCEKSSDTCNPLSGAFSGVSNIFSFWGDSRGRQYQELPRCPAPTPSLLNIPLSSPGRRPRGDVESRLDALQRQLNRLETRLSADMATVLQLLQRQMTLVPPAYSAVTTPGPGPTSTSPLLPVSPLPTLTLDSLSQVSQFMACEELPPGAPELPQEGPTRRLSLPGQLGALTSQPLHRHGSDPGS
Chain of C-C chemokine receptor type 2 (P41597 whole entry): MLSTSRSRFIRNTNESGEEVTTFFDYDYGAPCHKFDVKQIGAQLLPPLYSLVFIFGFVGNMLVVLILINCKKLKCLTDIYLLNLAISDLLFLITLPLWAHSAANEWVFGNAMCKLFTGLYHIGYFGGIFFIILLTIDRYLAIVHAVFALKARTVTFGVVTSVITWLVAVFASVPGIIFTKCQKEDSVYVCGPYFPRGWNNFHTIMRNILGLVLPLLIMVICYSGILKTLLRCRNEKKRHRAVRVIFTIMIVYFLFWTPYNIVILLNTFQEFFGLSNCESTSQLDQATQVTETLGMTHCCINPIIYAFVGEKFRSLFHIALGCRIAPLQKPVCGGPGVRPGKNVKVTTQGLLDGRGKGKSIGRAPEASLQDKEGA
Chain of Cannabinoid receptor 1 (P21554 whole entry): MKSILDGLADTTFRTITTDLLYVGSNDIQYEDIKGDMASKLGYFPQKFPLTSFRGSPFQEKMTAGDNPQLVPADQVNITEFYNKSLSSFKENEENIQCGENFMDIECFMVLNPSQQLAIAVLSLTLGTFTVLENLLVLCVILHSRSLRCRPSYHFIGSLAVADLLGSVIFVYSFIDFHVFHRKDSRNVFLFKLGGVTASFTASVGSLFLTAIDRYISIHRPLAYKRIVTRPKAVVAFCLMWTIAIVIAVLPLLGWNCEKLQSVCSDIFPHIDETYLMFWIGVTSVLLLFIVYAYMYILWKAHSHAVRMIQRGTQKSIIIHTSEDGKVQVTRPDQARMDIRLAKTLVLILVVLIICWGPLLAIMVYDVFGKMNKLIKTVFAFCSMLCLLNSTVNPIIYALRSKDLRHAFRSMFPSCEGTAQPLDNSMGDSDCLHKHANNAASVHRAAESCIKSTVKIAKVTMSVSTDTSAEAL
Chain of Histamine H1 receptor (P35367 whole entry): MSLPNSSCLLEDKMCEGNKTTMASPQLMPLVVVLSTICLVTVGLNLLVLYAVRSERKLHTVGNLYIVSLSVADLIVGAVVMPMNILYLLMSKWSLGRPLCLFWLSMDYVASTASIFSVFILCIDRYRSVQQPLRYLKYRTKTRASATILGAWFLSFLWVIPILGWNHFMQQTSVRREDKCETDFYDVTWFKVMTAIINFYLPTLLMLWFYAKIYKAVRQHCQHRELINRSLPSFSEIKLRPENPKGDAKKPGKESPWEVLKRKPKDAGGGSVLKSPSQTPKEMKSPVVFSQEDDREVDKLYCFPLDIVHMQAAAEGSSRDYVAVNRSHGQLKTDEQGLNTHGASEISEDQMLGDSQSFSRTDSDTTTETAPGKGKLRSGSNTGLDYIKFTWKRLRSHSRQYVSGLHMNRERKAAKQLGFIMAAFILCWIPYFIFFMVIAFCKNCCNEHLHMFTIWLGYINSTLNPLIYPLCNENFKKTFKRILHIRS
Chain of Beta-1 adrenergic receptor (P08588 whole entry): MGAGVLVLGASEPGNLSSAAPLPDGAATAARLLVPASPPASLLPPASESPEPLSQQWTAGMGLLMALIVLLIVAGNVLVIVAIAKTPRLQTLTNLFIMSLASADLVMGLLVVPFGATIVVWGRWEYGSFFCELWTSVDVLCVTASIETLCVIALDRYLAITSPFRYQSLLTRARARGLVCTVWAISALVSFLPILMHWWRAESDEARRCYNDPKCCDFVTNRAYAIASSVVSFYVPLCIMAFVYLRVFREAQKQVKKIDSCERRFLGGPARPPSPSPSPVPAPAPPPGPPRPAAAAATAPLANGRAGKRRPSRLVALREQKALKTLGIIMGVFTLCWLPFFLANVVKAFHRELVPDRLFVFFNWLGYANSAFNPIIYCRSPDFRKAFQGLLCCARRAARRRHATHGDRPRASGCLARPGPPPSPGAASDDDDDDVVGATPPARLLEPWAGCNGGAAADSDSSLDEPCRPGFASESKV
Chain of Substance-P receptor (P25103 whole entry): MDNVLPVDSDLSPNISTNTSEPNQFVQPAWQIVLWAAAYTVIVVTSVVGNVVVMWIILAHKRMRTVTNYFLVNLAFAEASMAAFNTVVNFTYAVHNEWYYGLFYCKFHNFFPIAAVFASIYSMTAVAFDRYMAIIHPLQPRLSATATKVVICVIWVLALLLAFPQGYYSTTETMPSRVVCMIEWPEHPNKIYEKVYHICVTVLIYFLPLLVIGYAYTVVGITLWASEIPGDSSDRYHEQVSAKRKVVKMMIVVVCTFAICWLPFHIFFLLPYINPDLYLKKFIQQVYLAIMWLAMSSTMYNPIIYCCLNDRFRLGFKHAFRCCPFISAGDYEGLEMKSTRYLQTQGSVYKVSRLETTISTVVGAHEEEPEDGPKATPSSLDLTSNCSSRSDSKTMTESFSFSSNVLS

Compound: CC1(C)OC(=O)N([C@H]2CC[C@H](c3cnc(N)c(-c4ncccn4)c3)CC2)[C@H]1c1ccccc1
concentration at 72 h [1]: 120 nM
IC50 (Histamine H1 receptor): > 48.5 µM
IC50 (Mu-type opioid receptor): > 48.5 µM
IC50 (Cannabinoid receptor 1): > 48.5 µM
inhibition [2]: inactive
IC50 [3]: 10.9 µM
IC50 [4]: 3 µM
MTD at 192 h [5]: 50 mg/kg
inhibition (Mus musculus [6]): Active
Activity (Mus musculus [7]): Toxic
IC50 [8]: > 48.5 µM
IC50 [9]: > 48.5 µM
IC50 (Substance-P receptor): > 48.5 µM

inhibition [2]: inactive
Compound: CC1(C)OC(=O)N(c2ccc(-c3cnc(N)c(-c4ncccn4)c3)cc2)[C@H]1c1ccccc1
inhibition (Mus musculus [10]): Active
inhibition (Mus musculus [11]): Active
